Values quoted from earlier work in US8758826B2, “Cannabinoid receptor binding agents, compositions, and methods” (Wet Inc., priority 2011, dated 2014).

How the values were obtained:
CB2 = CB2 (Homo sapiens, UniProt P34972); details: higher for CB2 than CB1
[1] = test system: rats with a partial urethral obstruction
histamine-induced itch = details: topically applied
keratinocyte = details: in vitro and in situ

Chain of CB2 (P34972 whole entry, species assumed): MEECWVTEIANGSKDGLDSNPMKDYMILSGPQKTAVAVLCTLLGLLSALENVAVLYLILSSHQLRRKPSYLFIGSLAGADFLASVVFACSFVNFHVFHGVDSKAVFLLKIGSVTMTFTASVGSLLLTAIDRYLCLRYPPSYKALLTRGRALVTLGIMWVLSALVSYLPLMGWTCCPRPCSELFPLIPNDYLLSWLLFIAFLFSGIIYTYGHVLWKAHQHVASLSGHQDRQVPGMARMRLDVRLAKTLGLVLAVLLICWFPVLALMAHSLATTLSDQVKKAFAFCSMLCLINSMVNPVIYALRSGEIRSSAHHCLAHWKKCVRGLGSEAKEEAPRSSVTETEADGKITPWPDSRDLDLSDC

CCCCCc1cc(O)c2c(c1)OC(C)(C)c1ccc(C)cc1-2 [Cannabinol]
Binding affinity to CB2 than to CB1 (CB2): 10 fold

CCCCCCC(C)(C)c1cc(O)c([C@H]2CC(=O)[C@H]3C[C@@H]2C3(C)C)c(OC(=O)/C=C/C(=O)O)c1 [Cannabinor]
Bladder emptying [1]: improves bladder emptying

CCCCCCC(C)(C)c1cc(O)c2c(c1)OC(C)(C)[C@@H]1CC=C(CO)C[C@@H]21 [HU-210]
Histamine-induced itch (histamine-induced itch): capable of reducing histamine-induced itch

Cc1c(C(=O)NN2CCCCC2)nn(-c2ccc(Cl)cc2Cl)c1-c1ccc(Cl)cc1 [SR141716]
Sperm motility (human sperm): enhance sperm motility

CCCCCc1cc(O)c2c(c1)OC(C)(C)[C@@H]1CCC(C)=C[C@@H]21 [THC, Δ9-tetrahydrocannabinol]
Hair shaft elongation (human hair follicle): dose-dependently inhibited | Intraepithelial apoptosis and premature HF regression (catagen) (human hair follicle): induced | Proliferation of hair matrix keratinocytes (human hair follicle): dose-dependently inhibited | Action at CB1 (CB1): agonist | Melanin content of the hair follicle (hair follicle): significantly and dose-dependently suppressed

CCCCC/C=C\C/C=C\C/C=C\C/C=C\CCCC(=O)NCCO [anandamide, N-arachidonoylethanolamide]
Cell death (keratinocyte): induces cell death | Keratinocyte proliferation (keratinocyte): markedly suppresses | Hair shaft elongation (human hair follicle): dose-dependently inhibited | Intraepithelial apoptosis and premature HF regression (catagen) (human hair follicle): induced | Proliferation of hair matrix keratinocytes (human hair follicle): dose-dependently inhibited

COc1cc(/C=C/C(=O)CC(=O)/C=C/c2ccc(O)c(OC)c2)ccc1O [curcumin]
Apoptosis in melanoma cells (melanoma cells): induce apoptosis | Proliferation of melanoma cells (melanoma cells): suppress proliferation
